Test results as given in patent US20060276340A1, “HERBICIDE COMPOSITION COMPRISING PYRIBAMBENZ-PROPYL OR PYRIBAMBENZ-ISOPROPYL” (Zhejiang Chem-Tech Group Co., Ltd., priority 2003, published 2006).

Tests used:
Assay type in all cases: in vivo
Cerastium arvense [1] = assay: greenhouse pot test, post-emergence early stage treatment
Description: (§1) The test soil is a formulated sandy loam soil. 9.5 centimeter diameter pots are used for herbicidal activity test.
(§2) The pots for post-emergence treatment are placed into a greenhouse and incubated for 7 to 9 days, and then subjected to leave treatment by spraying. The preparation liquid for the treatment prepared by mixing individual single-herbicides was diluted with water to the desired dosage.
(§3) The treated pots stood for one day, then were placed in a greenhouse and watered regularly. The herbicidal activities of the compositions were evaluated by visual examination after incubating for 14 to 21 days.
(§4) The herbicidal activities of the compositions were evaluated by plant symptoms such as stunting, deformity, chlorosis, and whitening. 0 represents that the compositions have no herbicidal effect or have safety to crops. 100 represents that the weeds or crops were completely killed.

Poa annua [2] = assay: as above
Description: as §1, §2, §3, §4

Alopercurus japonicus [3] = assay: as above; conditions: ALOJA
Description: as §1, §2, §3, §4

Galium aparine [4] = assay: as above
Description: as §1, §2, §3, §4

Digitrria sanguinalis = assay: greenhouse pot test, Tables 1-2; conditions: DIGSA 3 leaves
Description: as §1
(§5) The soil in the pot for the pre-emergence test was sprayed one day after planting. The preparation liquid for the treatment prepared by mixing individual single-herbicides was diluted with water to the desired dosage.
as §2, §3, §4

Beckmannia syzigachne [5] = assay: greenhouse pot test, Tables 1-2; conditions: BECSY 2 leaves
Description: as §1, §5, §2, §3, §4

Alopecurus aequalis [6] = assay: greenhouse pot test, Tables 1-2
Description: as §1, §5, §2, §3, §4

Poa annua [7] = assay: greenhouse pot test, Tables 1-2; conditions: POAAN 3 leaves
Description: as §1, §5, §2, §3, §4

Polypogon fugax [8] = assay: greenhouse pot test, Tables 1-2; conditions: POLFU 3-4 leaves
Description: as §1, §5, §2, §3, §4

Beckmannia syzigachne [9] = assay: greenhouse pot test, post-emergence early stage treatment; conditions: BECSY 2˜3 leaves
Description: as §1, §2, §3, §4

weeds in rape field = assay: weed control in rape field, descriptive statements
Cerastium arvense [10] = assay: greenhouse pot test, pre-emergence treatment; conditions: CERAR
Description: as §1, §5, §3, §4

Alopecurus aequalis [11] = assay: greenhouse pot test, pre-emergence treatment; conditions: ALOAE
Description: as §1, §5, §3, §4

Polypogon fugax [12] = assay: greenhouse pot test, pre-emergence treatment; conditions: POLFU
Description: as §1, §5, §3, §4

Galium aparine [13] = assay: greenhouse pot test, pre-emergence treatment; conditions: GALAP
Description: as §1, §5, §3, §4

Cerastium arvense [14] = assay: greenhouse pot test, post-emergence treatment; conditions: CERAR 6 leaves
Description: as §1, §2, §3, §4

Alopecurus aequalis [15] = assay: greenhouse pot test, post-emergence treatment; conditions: ALOAE 3 leaves
Description: as §1, §2, §3, §4

Polypogon fugax [16] = assay: greenhouse pot test, post-emergence treatment; conditions: POLFU 4˜4.5 leaves
Description: as §1, §2, §3, §4

Galium aparine [17] = assay: greenhouse pot test, post-emergence treatment
Description: as §1, §2, §3, §4

Veronica didyma = assay: greenhouse pot test, post-emergence treatment; conditions: VERDI
Description: as §1, §2, §3, §4

Poa annua [18] = assay: greenhouse pot test, post-emergence treatment; conditions: POAAN
Description: as §1, §2, §3, §4

Alopercurus japonicus [19] = assay: greenhouse pot test, post-emergence treatment; conditions: ALOJA
Description: as §1, §2, §3, §4

CCOCN(C(=O)CCl)c1c(C)cccc1CC [acetochlor]
visual evaluation of weed effects (Cerastium arvense [1]; CERAR, 150 g/ha): 70%
visual evaluation of weed effects (Cerastium arvense [1]; CERAR, 300 g/ha): 85%
visual evaluation of weed effects (Cerastium arvense [1]; CERAR, 450 g/ha): 85%
visual evaluation of weed effects (Cerastium arvense [1]; CERAR, 600 g/ha): 85%
visual evaluation of weed effects (Poa annua [2]; POAAN, 150 g/ha): 70%
visual evaluation of weed effects (Poa annua [2]; POAAN, 300 g/ha): 90%
visual evaluation of weed effects (Poa annua [2]; POAAN, 450 g/ha): 95%
visual evaluation of weed effects (Poa annua [2]; POAAN, 600 g/ha): 95%
visual evaluation of weed effects (Alopercurus japonicus [3]; 150 g/ha): 60%
visual evaluation of weed effects (Alopercurus japonicus [3]; 300 g/ha): 90%
visual evaluation of weed effects (Alopercurus japonicus [3]; 450 g/ha): 95%
visual evaluation of weed effects (Alopercurus japonicus [3]; 600 g/ha): 95%
visual evaluation of weed effects (Galium aparine [4]; GALAP, 150 g/ha): 40%
visual evaluation of weed effects (Galium aparine [4]; GALAP, 300 g/ha): 50%
visual evaluation of weed effects (Galium aparine [4]; GALAP, 450 g/ha): 60%
visual evaluation of weed effects (Galium aparine [4]; GALAP, 600 g/ha): 70%

CCOC(=O)C(C)Oc1ccc(Oc2cnc3cc(Cl)ccc3n2)cc1 (stereo not drawn) [quizalofop-ethyl]
visual evaluation of weed effects (Digitrria sanguinalis; 6 g/ha): 100%
visual evaluation of weed effects (Digitrria sanguinalis; 9 g/ha): 100%
visual evaluation of weed effects (Digitrria sanguinalis; 12 g/ha): 100%
visual evaluation of weed effects (Digitrria sanguinalis; 15 g/ha): 100%
visual evaluation of weed effects (Beckmannia syzigachne [5]; 6 g/ha): 95%
visual evaluation of weed effects (Beckmannia syzigachne [5]; 9 g/ha): 95%
visual evaluation of weed effects (Beckmannia syzigachne [5]; 12 g/ha): 98%
visual evaluation of weed effects (Beckmannia syzigachne [5]; 15 g/ha): 98%
visual evaluation of weed effects (Alopecurus aequalis [6]; ALOAE 0 leaf, 6 g/ha): 85%
visual evaluation of weed effects (Alopecurus aequalis [6]; ALOAE 0 leaf, 9 g/ha): 85%
visual evaluation of weed effects (Alopecurus aequalis [6]; ALOAE 0 leaf, 12 g/ha): 85%
visual evaluation of weed effects (Alopecurus aequalis [6]; ALOAE 0 leaf, 15 g/ha): 85%
visual evaluation of weed effects (Alopecurus aequalis [6]; ALOAE 3 leaves, 6 g/ha): 98%
visual evaluation of weed effects (Alopecurus aequalis [6]; ALOAE 3 leaves, 9 g/ha): 100%
visual evaluation of weed effects (Alopecurus aequalis [6]; ALOAE 3 leaves, 12 g/ha): 100%
visual evaluation of weed effects (Alopecurus aequalis [6]; ALOAE 3 leaves, 15 g/ha): 100%
visual evaluation of weed effects (Poa annua [7]; 6 g/ha): 0%
visual evaluation of weed effects (Poa annua [7]; 9 g/ha): 10%
visual evaluation of weed effects (Poa annua [7]; 12 g/ha): 10%
visual evaluation of weed effects (Poa annua [7]; 15 g/ha): 10%
visual evaluation of weed effects (Polypogon fugax [8]; 6 g/ha): 30%
visual evaluation of weed effects (Polypogon fugax [8]; 9 g/ha): 100%
visual evaluation of weed effects (Polypogon fugax [8]; 12 g/ha): 100%
visual evaluation of weed effects (Polypogon fugax [8]; 15 g/ha): 100%
visual evaluation of weed effects (Cerastium arvense [1]; CERAR 3˜4 leaves, quizalofop-ethyl 6 g/ha): 0%
visual evaluation of weed effects (Cerastium arvense [1]; CERAR 3˜4 leaves, quizalofop-ethyl 9 g/ha): 0%
visual evaluation of weed effects (Cerastium arvense [1]; CERAR 3˜4 leaves, quizalofop-ethyl 12 g/ha): 0%
visual evaluation of weed effects (Cerastium arvense [1]; CERAR 3˜4 leaves, quizalofop-ethyl 15 g/ha): 0%
visual evaluation of weed effects (Beckmannia syzigachne [9]; quizalofop-ethyl 6 g/ha): 98%
visual evaluation of weed effects (Beckmannia syzigachne [9]; quizalofop-ethyl 9 g/ha): 100%
visual evaluation of weed effects (Beckmannia syzigachne [9]; quizalofop-ethyl 12 g/ha): 100%
visual evaluation of weed effects (Beckmannia syzigachne [9]; quizalofop-ethyl 15 g/ha): 100%
visual evaluation of weed effects (Poa annua [2]; POAAN 2˜3 leaves, quizalofop-ethyl 6 g/ha): 0%
visual evaluation of weed effects (Poa annua [2]; POAAN 2˜3 leaves, quizalofop-ethyl 9 g/ha): 0%
visual evaluation of weed effects (Poa annua [2]; POAAN 2˜3 leaves, quizalofop-ethyl 12 g/ha): 50%
visual evaluation of weed effects (Poa annua [2]; POAAN 2˜3 leaves, quizalofop-ethyl 15 g/ha): 60%
visual evaluation of weed effects (Galium aparine [4]; GALAP 7˜8 leaves, quizalofop-ethyl 6 g/ha): 0%
visual evaluation of weed effects (Galium aparine [4]; GALAP 7˜8 leaves, quizalofop-ethyl 9 g/ha): 0%
visual evaluation of weed effects (Galium aparine [4]; GALAP 7˜8 leaves, quizalofop-ethyl 12 g/ha): 0%
visual evaluation of weed effects (Galium aparine [4]; GALAP 7˜8 leaves, quizalofop-ethyl 15 g/ha): 0%
weed control (weeds in rape field; Poa annua): weak activity
weed control (weeds in rape field; most of grasses, even herbicide-resistant sclerochloa kengiana and Beckmannia syzigachne): excellent control

CCOc1nc(NC)nc(NC(=O)NS(=O)(=O)c2ccccc2C(=O)O)n1 [ethametsulfuron]
visual evaluation of weed effects (Cerastium arvense [10]; 6 g/ha): 85%
visual evaluation of weed effects (Cerastium arvense [10]; 7.5 g/ha): 90%
visual evaluation of weed effects (Cerastium arvense [10]; 9 g/ha): 95%
visual evaluation of weed effects (Alopecurus aequalis [11]; 6 g/ha): 80%
visual evaluation of weed effects (Alopecurus aequalis [11]; 7.5 g/ha): 90%
visual evaluation of weed effects (Alopecurus aequalis [11]; 9 g/ha): 95%
visual evaluation of weed effects (Polypogon fugax [12]; 6 g/ha): 60%
visual evaluation of weed effects (Polypogon fugax [12]; 7.5 g/ha): 70%
visual evaluation of weed effects (Polypogon fugax [12]; 9 g/ha): 75%
visual evaluation of weed effects (Galium aparine [13]; 6 g/ha): 10%
visual evaluation of weed effects (Galium aparine [13]; 7.5 g/ha): 40%
visual evaluation of weed effects (Galium aparine [13]; 9 g/ha): 70%
visual evaluation of weed effects (Cerastium arvense [1]; CERAR 3˜4 leaves, ethametsulfuron 6 g/ha): 90%
visual evaluation of weed effects (Cerastium arvense [1]; CERAR 3˜4 leaves, ethametsulfuron 9 g/ha): 90%
visual evaluation of weed effects (Beckmannia syzigachne [9]; ethametsulfuron 6 g/ha): 40%
visual evaluation of weed effects (Beckmannia syzigachne [9]; ethametsulfuron 9 g/ha): 40%
visual evaluation of weed effects (Poa annua [2]; POAAN 2˜3 leaves, ethametsulfuron 6 g/ha): 70%
visual evaluation of weed effects (Poa annua [2]; POAAN 2˜3 leaves, ethametsulfuron 9 g/ha): 80%
visual evaluation of weed effects (Galium aparine [4]; GALAP 7˜8 leaves, ethametsulfuron 6 g/ha): 90%
visual evaluation of weed effects (Galium aparine [4]; GALAP 7˜8 leaves, ethametsulfuron 9 g/ha): 90%
weed control (weeds in rape field; grass weeds): rather moderate control
weed control (weeds in rape field; most of broadleaf weeds): remarkable control
visual evaluation of weed effects (Cerastium arvense [14]; 6 g/ha): 90%
visual evaluation of weed effects (Cerastium arvense [14]; 7.5 g/ha): 90%
visual evaluation of weed effects (Cerastium arvense [14]; 9 g/ha): 90%
visual evaluation of weed effects (Alopecurus aequalis [15]; 6 g/ha): 90%
visual evaluation of weed effects (Alopecurus aequalis [15]; 7.5 g/ha): 90%
visual evaluation of weed effects (Alopecurus aequalis [15]; 9 g/ha): 90%
visual evaluation of weed effects (Polypogon fugax [16]; 6 g/ha): 60%
visual evaluation of weed effects (Polypogon fugax [16]; 7.5 g/ha): 60%
visual evaluation of weed effects (Polypogon fugax [16]; 9 g/ha): 70%
visual evaluation of weed effects (Galium aparine [17]; GALAP 7˜8 leaves, 6 g/ha): 85%
visual evaluation of weed effects (Galium aparine [17]; GALAP 7˜8 leaves, 7.5 g/ha): 90%
visual evaluation of weed effects (Galium aparine [17]; GALAP 7˜8 leaves, 9 g/ha): 90%

O=C(O)Cn1c(=O)sc2cccc(Cl)c21 [benazolin]
visual evaluation of weed effects (Veronica didyma; 75 g/ha): 60%
visual evaluation of weed effects (Veronica didyma; 150 g/ha): 90%
visual evaluation of weed effects (Veronica didyma; 225 g/ha): 98%
visual evaluation of weed effects (Veronica didyma; 300 g/ha): 100%
visual evaluation of weed effects (Poa annua [18]; 75 g/ha): 0%
visual evaluation of weed effects (Poa annua [18]; 150 g/ha): 0%
visual evaluation of weed effects (Poa annua [18]; 225 g/ha): 0%
visual evaluation of weed effects (Poa annua [18]; 300 g/ha): 0%
visual evaluation of weed effects (Alopercurus japonicus [19]; 75 g/ha): 0%
visual evaluation of weed effects (Alopercurus japonicus [19]; 150 g/ha): 0%
visual evaluation of weed effects (Alopercurus japonicus [19]; 225 g/ha): 0%
visual evaluation of weed effects (Alopercurus japonicus [19]; 300 g/ha): 0%
visual evaluation of weed effects (Galium aparine [17]; GALAP, 75 g/ha): 70%
visual evaluation of weed effects (Galium aparine [17]; GALAP, 150 g/ha): 90%
visual evaluation of weed effects (Galium aparine [17]; GALAP, 225 g/ha): 100%
visual evaluation of weed effects (Galium aparine [17]; GALAP, 300 g/ha): 100%
